# Data as given in patent US11976083B2, “Inhibitors of peptidylarginine deiminases” (Gilead Sciences, Inc., priority 2020, dated 2024).
# Target: T1, human PAD4 (Homo sapiens, UniProt Q9UM07)
# T1 construct: human PAD4 (NM_012387), A2-P663, was PCR amplified; His-SUMO (N, cleaved yes); made in house; host or cells: E. coli BL21(DE3)
# Assay: In vitro PAD4 BAEE biochemical assay
# Settings: BAEE substrate 3 mM, 5 nM PAD4, 2 mM calcium chloride; geometric mean of multiple experiments
# How it was run: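 PAD4 5 nM, CaCl2 2 mM, BAEE 3 mM final; 50 mM MOPS pH 7.6, 50 mM NaCl, 0.05% Tween-20, 2 mM DTT. Cpd + enzyme 30 min 25 °C; substrate 2 h 25 °C; EDTA stop; OPA detection 1 h. IC50 4-parameter fit.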
# T1 sequence (Q9UM07 2-663): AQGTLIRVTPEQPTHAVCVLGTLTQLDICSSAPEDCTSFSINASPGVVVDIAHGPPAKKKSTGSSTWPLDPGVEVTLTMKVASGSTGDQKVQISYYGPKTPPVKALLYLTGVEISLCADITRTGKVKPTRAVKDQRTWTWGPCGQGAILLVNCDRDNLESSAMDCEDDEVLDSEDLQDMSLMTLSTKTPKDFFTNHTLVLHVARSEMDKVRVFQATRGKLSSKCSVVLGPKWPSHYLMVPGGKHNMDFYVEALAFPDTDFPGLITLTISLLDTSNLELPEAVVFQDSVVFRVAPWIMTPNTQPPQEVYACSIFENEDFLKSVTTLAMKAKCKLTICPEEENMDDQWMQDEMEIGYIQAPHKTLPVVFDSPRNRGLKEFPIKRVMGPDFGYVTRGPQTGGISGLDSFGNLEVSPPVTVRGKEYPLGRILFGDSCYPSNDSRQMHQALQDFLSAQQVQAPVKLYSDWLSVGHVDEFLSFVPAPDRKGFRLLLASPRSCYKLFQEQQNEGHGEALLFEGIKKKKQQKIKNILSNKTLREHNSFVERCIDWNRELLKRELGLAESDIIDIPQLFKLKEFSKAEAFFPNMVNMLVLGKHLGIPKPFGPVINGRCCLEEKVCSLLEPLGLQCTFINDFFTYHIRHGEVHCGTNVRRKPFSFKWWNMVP
row,IC50 [µM],Compound
1,0.115,"COc1cc(C(=O)N2CC[C@@H](OC)[C@@H](N)C2)cc2nc(-c3cc4ccc5nc4n3CC(F)(F)CCCCC(C)(C)C(=O)N[C@@H]5C)n(C)c12 [Example 608, (11~{R})-17-[5-[(3~{S}, 4~{R})-3-amino-4-methoxy-piperidine-1-carbonyl]-7-methoxy-1-methyl-benzimidazol-2-yl]-3,3-difluoro-8,8,11-trimethyl-1,10,19-triazatricyclo[10.5.2.0^ {15,18}]nonadeca-12,14,16,18-tetraen-9-one]"
2,0.156,"COc1cc(C(=O)N2C[C@H](N)[C@@H]3CC[C@H]2C3)cc2nc(-c3cc4ccc5nc4n3CCCCCc3c(ccc(Cl)c3F)C(=O)N[C@@H]5C)n(C)c12 [Example 898, (2~{R})-17-[5-[(1~{S},4~{R},5~ {R})-4-amino-2-azabicyclo [3.2.1]octane-2-carbonyl]-7-methoxy-1-methyl-benzimidazol-2-yl]-8-chloro-9-fluoro-2-methyl-3,16,22-triazatetracyclo[14.5.2.0^ {5,10}.0^{19,23}]tricosa-1(22),5(10),6,8,17,19(23),20-heptaen-4-one]"
3,0.015,"COc1cc(C(=O)N2[C@H]3CC[C@@H]2[C@H](N)C3)cc2nc(-c3cc4ccc5nc4n3C[C@H]3C[C@@H]3COCCC(=O)N[C@@H]5C)c(C3CC3)n12 [Example 214, (3~{S),5~{S},12~{R})-18-[7-[(1~{R},2~{R},4~{S})-2-amino-7-azabicyclo[2.2.1]heptane-7-carbonyl]-3-cyclopropyl-5-methoxy-imidazo[1,2-a]pyridin-2-yl]-12-methyl-7-oxa-1,11,20-triazatetracyclo[11.5.2.0^{3,5}.0^{16,19}] icosa-13(20),14,16(19),17-tetraen-10-one]"
4,0.156,"COc1cc(C(=O)N2CC[C@@H](OC)[C@@H](N)C2)cc2nc(-c3cc4ccc5nc4n3C[C@H]3C[C@H]3COCCC(=O)N[C@@H]5C)n(C)c12 [Example 314, (3~{S),5~{R},12~{R})-18-[5-[(3~{S},4~{R})-3-amino-4-methoxy-piperidine-1-carbonyl]-7-methoxy-1-methyl-benzimidazol-2-yl]-12-methyl-7-oxa-1,11,20-triazatetracyclo[11.5.2.0^{3,5}.0^{16,19}] icosa-13(20),14,16(19),17-tetraen-10-one]"
5,0.193,"COc1cc(C(=O)N2CCC[C@@H](N)C2)cc2nc(-c3cc4ccc5nc4n3CCCCCCNC(=O)c3c-5ccnc3F)n(C)c12 [Example 56, 17-[5-[(3~{R})-3-aminopiperidine-1-carbonyl]-7-methoxy-1-methyl-benzimidazol-2-yl]-6-fluoro-5,9,16,22-tetrazatetracyclo[14.5.2.0^{2,7}.0^{19,23}] tricosa-1(22),2,4,6,17,19(23),20-heptaen-8-one]"
6,0.042,"C[C@H]1NC(=O)c2ccccc2CCCC(F)(F)Cn2c(-c3nc4cc(C(=O)N[C@H]5CNCC[C@@H]5F)c(F)cc4n3C)cc3ccc1nc32 [Example 597, 2-[(2~{R})-14,14-difluoro-2-methyl-4-oxo-3,16,22-triazatetracyclo[14.5.2.0^ {5,10}.0^{19,23}]tricosa-1(21),5(10),6,8,17,19,22-heptaen-17-yl]-6-fluoro-~ {N}-[(3~{S},4~{S})-4-fluoro-3-piperidyl]-1-methyl-benzimidazole-5-carboxamide]"
7,0.059,"COc1cc(C(=O)N2[C@H]3CC[C@@H]2[C@H](N)C3)cc2nc(-c3cc4ccc5nc4n3CCCCCCCC(=O)NC5)n(C)c12 [Example 255, 17-[5-[(1~{R},2~{R},4~{S})-2-amino-7-azabicyclo[2.2.1]heptane-7-carbonyl]-7-methoxy-1-methyl-benzimidazol-2-yl]-1,10,19-triazatricyclo[10.5.2.0^{15,18}]nonadeca-12(19),13,15(18),16-tetraen-9-one]"
8,0.013,"COc1ccc2c(n1)CCCCCn1c(-c3nc4cc(C(=O)N5C[C@H](N)[C@@H]6CC[C@H]5C6)cc(F)c4n3C3CC3)cc3ccc(nc31)[C@@H](C)NC2=O [Example 685, (2~{R})-17-[5-[(1~{S},4~{R}, 5~{R})-4-amino-2-azabicyclo[3.2.1]octane-2-carbonyl]-1-cyclopropyl-7-fluoro-benzimidazol-2-yl]-8-methoxy-2-methyl-3,9,16,22-tetrazatetracyclo [14.5.2.0^{5,10}.0^{19, 23}]tricosa-1(22),5(10), 6,8,17,19(23),20-heptaen-4-one]"
9,0.255,"COc1cc(C(=O)N2CCC[C@@H](N)[C@H]2CO)cc2nc(-c3cc4ccc5nc4n3CCCCC[C@@H]3C[C@H]3C(=O)N[C@@H]5C)n(C)c12 [Example 408, (2~{R},5~{R},7~{R})-14-[5-[(2~{S},3~{R})-3-amino-2-(hydroxymethyl)piperidine-1-carbonyl]-7-methoxy-1-methyl-benzimidazol-2-yl]-2-methyl-3,13,19-triazatetracyclo[11.5.2.0^{5,7}.0^{16,20}] icosa-1(19),14,16(20),17-tetraen-4-one]"
10,0.033,"COc1cc(C(=O)N2CC[C@@H](OC)[C@@H](N)C2)cc2nc(-c3cc4ccc5nc4n3CC(F)(F)CCC[C@@H]3C[C@H]3C(=O)N[C@@H]5C)n(C)c12 [Example 848, (2~{R},5~{R},7~{R})-14-[5-[(3~{S},4~{R})-3-amino-4-methoxy-piperidine-1-carbonyl]-7-methoxy-1-methyl-benzimidazol-2-yl]-11,11-difluoro-2-methyl-3,13,19-triazatetracyclo[11.5.2.0^ {5,7}.0^{16,20}]icosa-1(19),14,16(20),17-tetraen-4-one]"
11,0.04,"COc1cc(C(=O)N2[C@H]3CC[C@@H]2[C@H](N)C3)cc2nc(-c3cc4ccc5nc4n3CC3(CCCCCC(=O)N[C@@H]5C)CC3)n(C)c12 [Example 139, (11~{R})-17-[5-[(1~{R},2~{R},4~{S})-2-amino-7-azabicyclo[2.2.1]heptane-7-carbonyl]-7-methoxy-1-methyl-benzimidazol-2-yl]-11-methyl-spiro[1,10,19-triazatricyclo[10.5.2.0^{15,18}]nonadeca-12(19),13,15(18),16-tetraene-3,1′-cyclopropane]-9-one]"
12,0.005,"C[C@@H]1[C@H](N)CCCN1C(=O)c1cc(F)c2c(c1)nc(-c1cc3ccc4nc3n1CCCCCc1nc3ccsc3cc1C(=O)N[C@@H]4C)n2C1CC1 [Example 796, (2~{R})-20-[5-[(2~{R},3~{R})-3-amino-2-methyl-piperidine-1-carbonyl]-1-cyclopropyl-7-fluoro-benzimidazol-2-yl]-2-methyl-8-thia-3,12,19,25-tetrazapentacyclo[17.5.2.0^ {5,13}.0^{7,11).0^{22,26}] hexacosa-1(24),5(13), 6,9,11,20,22,25-octaen-4-one]"
13,0.044,"C[C@H]1NC(=O)[C@@H]2C[C@H]2CCCC(F)(F)Cn2c(-c3nc4cc(C(=O)N5C[C@H](N)[C@@H]6CC[C@H]5C6)cc(Cl)c4n3C3CC3)cc3ccc1nc32 [Example 471, (2~{R},5~{R},7~{R})-14-[5-[(1~{S),4~{R},5~{R})-4-amino-2-azabicyclo[3.2.1]octane-2-carbonyl]-7-chloro-1-cyclopropyl-benzimidazol-2-yl]-11,11-difluoro-2-methyl-3,13,19-triazatetracyclo[11.5.2.0^{5,7}.0^{16,20}] icosa-1(18),14,16,19-tetraen-4-one]"
14,0.518,"COc1cc(C(=O)N[C@H]2CNCCC2(F)F)cc2nc(-c3cc4ccc5nc4n3CCC/C=C/c3ccccc3C(=O)N[C@@H]5C)n(C)c12 [Example 495, ~{N}-[(3~{S})-4,4-difluoro-3-piperidyl]-7-methoxy-1-methyl-2-[(2~{R},11~{E})-2-methyl-4-oxo-3,16,22-triazatetracyclo[14.5.2.0^ {5,10}.0^{19,23}]tricosa-1(22),5(10),6,8,11, 17,19(23),20-octaen-17-yl] benzimidazole-5-carboxamide]"
15,0.022,"C[C@H]1NC(=O)[C@@H]2C[C@H]2CCCCCn2c(-c3nc4cc(C(=O)N5C[C@H](N)[C@@H]6CC[C@H]5C6)cc(F)c4n3C3CC3)cc3ccc1nc32 [Example 882, (2~{R},5~{R},7~{R})-14-[5-[(1~{S),4~{R},5~{R})-4-amino-2-azabicyclo [3.2.1]octane-2-carbonyl]-1-cyclopropyl-7-fluoro-benzimidazol-2-yl]-2-methyl-3,13,19-triazatetracyclo[11.5.2.0^ {5,7}.0^{16,20}]icosa-1(19),14,16(20),17-tetraen-4-one]"
16,0.035,"C[C@H]1NC(=O)c2cnc(C(F)(F)F)cc2CCCCCn2c(-c3nc4cc(C(=O)N5C[C@H](N)[C@@H]6CC[C@H]5C6)cc(F)c4n3C3CC3)cc3ccc1nc32 [Example 844, (2~{R})-17-[5-[(1~{S},4~ {R},5~{R})-4-amino-2-azabicyclo [3.2.1]octane-2-carbonyl]-1-cyclopropyl-7-fluoro-benzimidazol-2-yl]-2-methyl-8-(trifluoromethyl)-3,7,16,22-tetrazatetracyclo[14.5.2.0^ {5,10).0^{19,23}]tricosa-1(22),5(10),6,8,17,19(23),20-heptaen-4-one]"
17,0.037,"COc1cc(C(=O)N2C[C@H](N)[C@@H]3CC[C@H]2C3)cc2nc(-c3cc4ccc5nc4n3CCCCCCC(C)(C)C(=O)N[C@@H]5C)n(C)c12 [Example 441, (11~{R})-17-[5-[(1~{S),4~{R},5~{R})-4-amino-2-azabicyclo[3.2.1]octane-2-carbonyl]-7-methoxy-1-methyl-benzimidazol-2-yl]-8,8,11-trimethyl-1,10,19-triazatricyclo[10.5.2.0^{15,18}]nonadeca-12(19),13,15(18),16-tetraen-9-one]"
18,0.069,"COc1cc(C(=O)N2CCC[C@@H](N)C2)cc2nc(-c3cc4ccc5nc4n3CCCCCC[C@](C)(C(F)(F)F)C(=O)N[C@@H]5C)n(C)c12 [Example 4, (8~{S},11~{R})-17-[5-[(3~{R})-3-aminopiperidine-1-carbonyl]-7-methoxy-1-methyl-benzimidazol-2-yl]-8,11-dimethyl-8-(trifluoromethyl)-1,10,19-triazatricyclo[10.5.2.0^{15,18}]nonadeca-12(19),13,15(18),16-tetraen-9-one]"
